# Laboratory results from paper PMC7180452, “Purine and Purine Isostere Derivatives of Ferrocene: An Evaluation of ADME, Antitumor and Electrochemical Properties” (Molecules, 2020).
# Entries after “also recorded” stand apart in the source; their conditions may differ.
# Tests used:
# [1] = tested on: metastatic colorectal adenocarcinoma (SW620); assay: In vitro antiproliferative activity, SW620; type: cell-based, human; conditions: SW620 cells
# Description: (§1) Antiproliferative activity of compounds 11a−11c, 12a−12c, 13a−13c, 14a−14c, 15a−15c, 16a, 23a−23c, 24a−24c, 25a−25c, 34a−34c and 35a−35c was evaluated in vitro on four human tumor cell lines (American Type Culture Collection, Manassas, VA, USA): metastatic colorectal adenocarcinoma (SW620), ductal pancreatic adenocarcinoma (CFPAC-1), hepatocellular carcinoma (HepG2) and cervical carcinoma (HeLa) as well as normal skin fibroblasts (HFF).
# [2] = tested on: ductal pancreatic adenocarcinoma (CFPAC-1); assay: In vitro antiproliferative activity, CFPAC-1; type: cell-based, human; conditions: CFPAC-1 cells
# Description: as §1
# [3] = tested on: MDCKII-hMDR1 cells; assay: Permeability and P-gp substrate assessment in MDCKII-hMDR1 cell monolayer; type: in vitro ADME, canine; conditions: for Permeability classification: MDCKII-hMDR1, in words; for Efflux Ratio (BA/AB) / Papp (AB) / Papp (BA): without P-gp inhibitor; for Papp (AB) / Papp (BA): 10 µM, 60 min
# Description: The Madin-Darby canine kidney cells with overexpressed human multidrug-resistant gene (MDCKII-hMDR1) have been frequently used to study bidirectional transport of compounds and assess P-gp substrate potential. Apparent permeability (Papp) values were determined from the amount permeated through the MDCKII-hMDR1 cell monolayer in both the apical-basolateral (AB) and basolateral-apical (BA) direction.
# MDCKII-hMDR1 cell monolayer was used for determination of permeability and P-gp substrate assessment. MDCKII-hMDR1 cells (Solvo Biotechnology, Szeged, Hungary) were grown in the controlled atmosphere (37 °C, 95% humidity, 5% CO2) in MDCK cell culture medium containing Dulbecco’s Modified Eagle Medium (DMEM) + 10% Fetal bovine serum (FBS, inactivated) + 1% glutamax-100 + 1% antibiotic/antimycotic + 1% of Non-essential amino acids Minimum Essential Medium (MEM NEAA). Cultures were split every 3–4 days using 0.05% Trypsin-EDTA. Cells were seeded 4 days prior to the experiment in concentration of 0.3 × 10^6 cells mL^−1 and cultured in CO2 incubator. On the experiment day, cell monolayers were washed with Dulbecco’s phosphate buffer saline (D-PBS) and equilibrated for 45 min in CO2 incubator in D-PBS containing 1% DMSO (1% v/v) with or without Elacridar (2 µM). Compounds, in final concentration of 10 µM, were prepared in transport medium containing Lucifer yellow (100 µM), with DMSO contentment of 1% (v/v) and in the presence and without Elacridar. Lucifer yellow calibration curve was prepared by serial dilution (12 points, with 100 µM as the highest point). Monolayer integrity was examined by fluorescent measurement on a Microplate reader Infinite F500 (Tecan) by using an excitation of 485 nm and emission of 530 nm. Experiment was started by applying the solutions containing test compounds to apical and basolateral side of the cell monolayer. Starting compound concentration (C0) was sampled at the start of the experiment and apical and basolateral compartments were sampled after incubation at 37 °C with gentle shaking for 60 min. Compound were tested in duplicate. Amprenavir was used as a control with low permeability and as a P-gp substrate without inhibitor presence, turning into a highly permeable compound with the inhibitor present.
# Samples were analyzed on an ABSciex API 4000 Triple Quadrupole Mass Spectrometer (Sciex, Division of MDS Inc., Toronto, ON, Canada) coupled to a UHPLC Nexera X2 (Shimadzu, Kyoto, Japan). Samples (1 µL) were injected onto a reversed phase HPLC column Luna Omega Polar C18, 30 × 2.1 mm i.d., 1.6 µm particle size (Phenomenex) which was kept at 50 °C. Aqueous solution was 0.1% formic acid in deionized water and the organic mobile phase was […]. Flow rate was kept at 0.7 mL min^−1 for all measurements. Fast-gradient elution was as follows: 2% of organic mobile phase through 0.15 min, from 2 to 95% of organic mobile phase (0.15−0.7 min), 95% of organic mobile phase (0.7−1.1 min), from 95 to 2% of organic mobile phase (1.1−1.11 min), and re-equilibration with 98% of aqueous mobile phase (1.11−1.5 min). Positive ion mode with turbo spray, an ion source temperature of 550 °C and a dwell time of 75 ms were utilized for mass spectrometric detection. Quantitation was performed using multiple reaction monitoring (MRM) at the specific transition corresponding to the compound of interest. Warfarin was used as an internal standard. The ratios between compound and internal standard peak areas were used instead of real compound concentration. Apparent permeability coefficient, Papp (nm s^−1) values were calculated by using the following Equation (1):Papp [nm s^−1] = (dQ/dT) × (1/C0) × (1/A)(1) where: dQ/dT = permeability rate; C0 = initial concentration in donor compartment; A = surface area of the cell monolayer (0.7 cm^2). […]
# [4] = Metabolic stability in human liver microsomes; type: in vitro ADME; conditions: for t1/2: 1 µM; for In Vivo CLh / In Vivo CLh (% LBF): human; for In Vivo CLh: predicted in vivo hepatic clearance; for In Vivo CLh (% LBF): predicted, % of liver blood flow
# Description: Metabolic stability of compounds was assessed in human and mouse liver microsomes (Corning, Tewksbury, MA, USA). Compounds, in final concentration of 1 µM, were incubated in phosphate buffer (50 mM, pH 7.4) for 60 min at 37 °C together with liver microsomes and NADPH generating system (nicotinamide adenine dinucleotide phosphate (NADP, 0.5 mM), glucose-6-phosphate (G6P, 5 mM), glucose-6-phosphate dehydrogenase (1.5 U mL^−1) and magnesium chloride (0.5 mM)). Also, compounds were incubated without the presence of NADPH cofactor, as a buffer stability control. Metabolic activity of liver microsomes was verified by including testosterone and propranolol as positive controls, as well as caffeine as a negative control. Sampling was performed at six time points (0, 10, 20, 30, 45 and 60 min), followed by reaction termination by addition of acetonitrile/methanol mixture (2:1, v/v) containing dicofenac as internal standard. Samples were analyzed as previously described for samples from permeability assay. The in vitro half-life (t1/2) was calculated from the slope of the linear regression by plotting ln % remaining of parent compound against incubation time. In vitro intrinsic clearance, CLint was calculated from half-life using following Equation (3):(3) CLint [µL min^−1 mg^−1]=ln2/t1/2×mL per incubation/mg protein per incubation where 52.5 mg protein/g liver is used as a constant.
# Predicted in vivo hepatic clearance, in vivo CLh was calculated as follows:(4) in vivo CLh [mL min^−1 kg^−1]=CLint×(mg protein/g liver)×Q×(LW/BW) /Q+(CLint×(mg protein/g liver)×(LW/BW)) where: LW/BW = liver weight/body weight [g kg^−1]; 25.7 (human), 87.5 (mouse); Q = LBF = liver blood flow [mL min^−1 kg^−1]; 21/1.26 (human), 131/7.86 (mouse).
# Predicted in vivo hepatic clearance can be expressed as %LBF and calculated as follows:(5) in vivo CLh [%LBF]=in vivo CLh/LBF×100
# [5] = Chrom logD determination (fast-gradient HPLC); conditions: pH 7.4
SMILES,IC50 [1],IC50 [2],Permeability classification [3],Efflux Ratio (BA/AB) [3],Papp (AB) [3],Papp (BA) [3],t1/2 ([4]; human liver microsomes),In Vivo CLh [4],In Vivo CLh (% LBF) [4],Chrom logD [5],"Metabolic stability classification ([4]; human liver microsomes, in words)"
"Clc1ncnc2c1ccn2Cc1cn(-[c-]2cccc2)nn1.[Fe+2].c1cc[cH-]c1 [Compound 11c, 4-Chloro-7-[1-(1-ferrocenyl-1,2,3-triazol-1-yl)methyl]-7H-pyrrolo[2,3-d]pyrimidine]",9.07 ± 1.21 µM,35 ± 5.44 µM,moderate AB permeability,2.9,5.3 ×10⁻⁶ cm/s,14.9 ×10⁻⁶ cm/s,4.1 min,24.3 mL/min/kg,95 % LBF,5.62,
"CC([c-]1cccc1)n1cc(Cn2cnc3ncnc(Cl)c32)nn1.[Fe+2].c1cc[cH-]c1 (stereo not shown) [Compound 15b, 6-Chloro-7-[1-(1-ferrocenyl-1-methylmethyl-1,2,3-triazol-4-yl)methyl]-7H-purine]",15.5 ± 3.24 µM,28.6 ± 2.68 µM,moderate AB permeability,10.7,3.2 ×10⁻⁶ cm/s,33.2 ×10⁻⁶ cm/s,19.0 min,20.4 mL/min/kg,79 % LBF,4.15,
"Clc1ncnc2c1ncn2Cc1cn(C[c-]2cccc2)nn1.[Fe+2].c1cc[cH-]c1 [Compound 13a, 6-Chloro-9-[1-(1-ferrocenymethyl-1,2,3-triazol-4-yl)methyl]-9H-purine]",14.4 ± 3.02 µM,22.8 ± 4.31 µM,moderate to high AB permeability; also recorded: good permeability,2.9,8.3 ×10⁻⁶ cm/s,23.8 ×10⁻⁶ cm/s,38.6 min,16.8 mL/min/kg,65 % LBF,4.27,good metabolic stability; also recorded: moderately stable; also recorded: moderate stability
